The source of these data is patent publication US7777070B2, “Acyloxyalkyl carbamate prodrugs of tranexamic acid, methods of synthesis and use” (XenoPort, Inc., priority 2005, dated 2010).

Like-named read-outs stand apart in the source and are kept apart here.

Data set [1] can be described thus: Pharmacokinetics of tranexamic acid after administration of tranexamic acid or prodrug to rats. Type of data set: in vivo, Sprague-Dawley rats. The settings on record: male, Sprague-Dawley, whole blood, rat; for bioavailability: versus i.v. tranexamic acid AUCinf 22.2 hr·μg/mL, read-out: F* (bioavailability of tranexamic acid); for Cmax: read-out: Cmax; for half-life: read-out: T1/2-λ (converted); for Tmax: read-out: Tmax. How it is done:
Tranexamic acid or a tranexamic acid prodrug of the present disclosure was administered as an intravenous bolus injection (i.v.), by oral gavage (p.o.), or by intracolonic (i.c.) administration via an indwelling catheter in the ascending colon to groups of four to six adult male Sprague-Dawley rats (weight approximately 250 g). Animals were fasted overnight before the study and for 4 hours post-dosing and were conscious at the time of the experiment. When administered intravenously, tranexamic acid was administered as a solution in water at a dose equivalent to 16 mg (0.1 mmol) of tranexamic acid per kg body weight. Prodrugs were orally or intracolonically administered as a suspension in 0.5% methyl cellulose in 0.1% Tween 80 at a dose equivalent to 16 mg (0.1 mmol) of tranexamic acid per kg body weight. Blood samples (300 μL) were obtained via a jugular vein cannula at intervals over 8 hours after oral dosing. Blood was quenched immediately using methanol and then was frozen at −80° C. until analyzed.
The following procedure was used to prepared blood samples for analysis:
1. Rat blood (100 μL) was collected at different times into K2EDTA tubes, 300 μL of methanol, and the mixture was vortexed to mix the ingredients.
2. Blank rat blood (90 μL) was quenched with 300 μL of methanol. Then ten μL of a standard stock solution (0.04, 0.2, 1, 5, 25, and 100 μg/mL) were added to the tube individually. Then 20 μL of p-chlorophenylalanine (5 μg/mL in 50% methanol) was added to each tube to make up a final calibration standard (0.004, 0.02, 0.1, 0.5, 2.5, and 10 μg/mL). The samples were vortexed and centrifuged at 14,000 rpm for 20 min.
3. To the quenched blood samples were added 20 μL of p-chlorophenylalanine (5 μg/mL in 50% methanol), the samples were vortexed and centrifuged at 14,000 rpm for 20 min.
4. The supernatant was analyzed by LC/MS/MS.
The following method was used for LC/MS/MS Analysis of the prepared blood samples. An API 4000 or 2000 LC/MS/MS spectrometer equipped with Agilent 1100 binary pumps and a CTC HTS-PAL autosampler were used in the analysis. A ThermoHypersil-BetaSil C18, 100×4.6 mm, 5 μm column was used during the analysis. The mobile phase for the analysis of tranexamic acid and prodrug was (A) 0.1% formic acid in water, and (B) 0.1% formic acid in acetonitrile. The gradient condition was: 2% eluent-B to 95% eluent-B for 2.5 min, then to 98% eluent-B to 4.0 min. At 4.1 min, it was returned to 2% eluent-B and maintained at 2% eluent-B till 6.0 min. The flow rate was 1 mL/min. An ESI source was used on the API 4000. The analysis of tranexamic acid was performed in positive ion mode for and negative ion mode was used for analysis of tranexamic acid prodrugs.
The MRM transition for each analyte was optimized using standard solutions. 20 μL of the sample was injected. Non-compartmental analysis was performed using WinNonlin (v.3.1 Professional Version, Pharsight Corporation, Mountain View, Calif.) on individual animal profiles. Summary statistics on major parameter estimates was performed for Cmax (peak observed concentration following dosing), Tmax (time to maximum concentration is the time at which the peak concentration was observed), AUC(0-t) (area under the serum concentration-time curve from time zero to last collection time, estimated using the log-linear trapezoidal method), AUC(0-∞), (area under the serum concentration time curve from time zero to infinity, estimated using the log-linear trapezoidal method to the last collection time with extrapolation to infinity), and t1/2 (terminal half-life).
The oral or intracolonic bioavailability (F) of tranexamic acid was determined by comparing the area under the tranexamic acid concentration vs. time curve (AUC) following oral or intracolonic administration of tranexamic acid or prodrug with the AUC of the tranexamic acid concentration vs. time curve following intravenous administration of tranexamic acid on a dose normalized basis. […]

For data set [2] the following is noted: cited from earlier work.
The conditions of data set [3]: women with menorrhagia; cited from earlier work.
The subject of data set [4] is Caco-2 cells. Put plainly: Caco-2 cellular permeability. The conditions noted are these: ratio of Papp apical to basolateral / basolateral to apical. Background: Passage across Caco-2 layers is used to estimate intestinal permeability.
Method: (§1) For example, passive permeability can be evaluated by examining the flux of a prodrug across a cultured polarized cell monolayer (e.g., Caco-2 cells).
(§2) Caco-2 cells obtained from continuous culture (passage less than 28) were seeded at high density onto Transwell polycarbonate filters. Cells were maintained with DMEM/10% fetal bovine serum, 1 mM nonessential amino acids, and 6 mM L-Gln, 5% CO2/95% O2, at 37° C. until the day of the experiment. Permeability studies were conducted at pH 6.5 apically (in 50 mM MES buffer containing 1 mM CaCl2, 1 mM MgCl2, 150 mM NaCl, 3 mM KCl, 1 mM NaH2PO4, 5 mM glucose) and pH 7.4 basolaterally (in Hanks' balanced salt solution containing 10 mM HEPES) in the presence of efflux pump inhibitors (250 μM MK-571 and 250 μM Verapamil). Inserts were placed in 12 or 24 well plates containing buffer and incubated for 30 min at 37° C. Prodrug (200 μM) was added to the apical or basolateral compartment (donor) and concentrations of prodrug and/or released parent drug in the opposite compartment (receiver) were determined at intervals over 1 hour using LC/MS/MS. Values of apparent permeability (Papp) were calculated using the equation: Papp=Vr(dC/dt)//(ACo) where Vr is the volume of the receiver compartment in mL; dC/dt is the total flux of prodrug and parent drug (μM/sec), determined from the slope of the plot of concentration in the receiver compartment versus time; C0 is the initial concentration of prodrug in μM; and A is the surface area of the membrane in cm^2.
Data set [5] has as its system Caco-2 cells.
Method: as §1, §2
The mark [6] stands for this setting: po, tranexamic acid in blood, p.o., dose equivalent to 16 mg/kg, mean (SD).
The mark [7] stands for this setting: po, tranexamic acid in blood, dose equivalent to 16 mg/kg, mean (SD).
The mark [8] stands for this setting: tranexamic acid in blood, i.c., dose equivalent to 16 mg/kg, mean (SD).

As usually defined, the AUC(0-inf) is total exposure, with the tail of the curve extrapolated. Broadly, the bioavailability is the share of a dose that reaches the circulation, judged against a reference dose that is usually intravenous. The term Cmax denotes the maximum level reached in the sampled fluid or tissue. By Tmax is commonly meant the time at which the peak concentration occurs. By AUC(0-t) is commonly meant the area under the concentration-time curve up to a stated or last time point. Regarding `NC[C@H]1CC[C@H](C(=O)O)CC1` [Compound 1, trans-4-(aminomethyl)-cyclohexanecarboxylic acid, reference compound], the AUC(0-inf) in data set [1] (iv, intravenously administered tranexamic acid, 16 mg/kg) worked out at 22200 ng·h/mL; in data set [1] (setting [7]), 7800 ng·h/mL; in data set [1] (setting [8]), 800 ng·h/mL. For the same compound, the bioavailability in data set [1] (other: intracolonic, 16 mg/kg, i.c., mean (SD)) was 5%; in data set [1] (po, 16 mg/kg, p.o., mean (SD)), 37%. The maximum concentration (Cmax) in data set [1] (po, tranexamic acid in blood, p.o., dose equivalent to 16 mg tranexamic acid per kg, mean (SD)) came to 2060 ng/mL; in data set [1] (tranexamic acid in blood, i.c. (intracolonic), dose equivalent to 16 mg/kg, mean (SD)), 220 ng/mL. For the same compound, the values for the half-life in data set [1] (setting [6]) and in data set [1] (setting [8]) were 1.9 h and 1.7 h, respectively. The Tmax in data set [1] (setting [6]) came out at 1.1 h; in data set [1] (setting [8]), 3.1 h. The AUC(0-t) worked out at 7300 ng·h/mL in data set [1] (setting [7]) and 600 ng·h/mL in data set [1] (setting [8]). Also, the “absorption following rectal administration” value in data set [2] (rectal administration in humans (Almer et al.)) is given as “poorly absorbed”. Also, the oral bioavailability in data set [2] (tranexamic acid, oral) is recorded as about 30%. Moreover, the terminal elimination half-life in data set [2] (tranexamic acid) was about 2 h. In data set [3], the “reduction of menstrual blood loss” value is on record as about 50%. For the same compound, the “Ratio A-B/B-A” value in the data set with Caco-2 cells [4] is on record as 1.3.
With `CC(OC(=O)NC[C@H]1CC[C@H](C(=O)[O-])CC1)OC(=O)C(C)C.[Na+]` (stereo partly drawn) [Compound 14, Sodium trans-4-{[1-(2-Methylpropanoyloxy)ethoxycarbonyl]-aminomethyl}-Cyclohexanecarboxylate], the “Ratio A-B/B-A” value in the data set on Caco-2 cells [5] amounted to 3.4.
